Values joined by “and” are separate entries in the source; they are usually repeats but may differ in a detail not shown here. Equal entries are not always repeated. “Also recorded” adds a separate entry of the source.
How the values were obtained:
[1] = parameters: method as in PMID 21456622; settings: calves fed P. esculentum, PTA dose 4.5 μmol kg^-1 b.w.; cited from earlier work
[2] = Urinary recovery after oral administration of bracken extract or dried bracken fern; assay type: in vivo, Jersey heifers; settings: for PTB recovered in urine: oral bracken extract or dried fern, within 24 hours
Procedure: Oral exposure, bracken extract. Bracken extract was administered orally by gavage in Experiment 2 (170 and 172 mL) and Experiment 5 (820 and 850 mL), to obtain PTA doses of 0.41 and 2 mg kg^-1 b.w (1.025 and 5.000 μmoles kg^-1), respectively. Blood and urine samples were collected up to 48 hours after gavage and samples were processed and stored as described previously.
Oral exposure, dried bracken fern. In Experiment 3, dried bracken fern was milled to a fine powder. Immediately before administration, the powder was mixed with water to produce a slurry (15 g of bracken per 100 mL of water). The slurry was administered orally by gavage (400 mL and 380 mL) corresponding to a PTA dose of 1.6 mg kg^-1 b.w (4 μmoles kg^-1). Blood and urine samples were collected up to 72 hours after gavage and the samples were processed and stored as described above.
PTA and PTB were analysed by LC-MS after purification using solid phase extraction (SPE) columns as reported in Aranha et al.. The limit of quantification of PTA and PTB in plasma was 3.0 x 10^−3 μM and 9.30 x 10^−3 μM, respectively. Limit of quantifications in diluted urine was 13 x 10^−3 μM for PTA and 8.28 x 10^−3μM for PTB.

[3] = Incubation of bracken extract in rumen liquid, in vitro; assay type: in vitro ADME, Jersey cows; settings: for PTB concentration in rumen liquid: initial PTA 17 μM
Procedure: Samples of rumen contents were collected from two rumen fistulated Jersey cows. The cows were fed daily with 6 kg of complete feedingstuff (Danish Ragna Grønmix; Danish Agro, Karise, Denmark) and 2 kg of hay. Barley straw and water were provided ad libitum. The rumen liquid fraction was obtained by passing the digest through a 250 μm nylon filter. From each cow, 150 mL rumen liquid was pre-incubated at 37°C under CO2 atmosphere for 10 min before 5 mL of bracken extract was added in order to obtain an initial PTA concentration of 17 μM. PTA stability was assessed by removal of 2.5 mL sample for PTA determination after incubation for 0, 5, 15, 30, 60 and 120 min at 37 °C. The sample was immediately centrifuged for 3 min at 8,500 g and analysed following the method of Aranha et al.. The pH in rumen liquid was determined at the beginning and termination of the experiment.
Rumen liquid samples were cleaned on HLB cartridges and processed as plasma samples. PTA and PTB calibration curves were prepared in ruminal fluid deactivated by boiling for 5 minutes. The recovery of PTA and PTB in ruminal fluid was 74% (± 0.5%) and 80% (± 1.2%), respectively.

[4] = One-week repeated dose trial with dried bracken, plasma toxicokinetics; assay type: in vivo, Jersey heifers; settings: for AUC0-∞ / MTT: PTB in plasma, daily PTA dose 2 mg kg^-1
Text: The two heifers used for the single dose trials were also used for the one week repeated dose study together with an additional two Jersey heifers (no’s 1550 and 1567; Harald Hansen Eftf. I/S, Slangerup, Denmark) weighing 163 to 237 kg. The additional two heifers had never been exposed to PTA or to bracken fern. A wash-out period of 20 days between the last single-dose experiment and the one week repeated dose trial was established for heifers no’s 4848 and 4849.
All four heifers were fed dried bracken powder (top-dressed and molasses added). twice a day during a period of 7 days providing a daily PTA dose of 2 mg kg^-1 (5 μmoles kg^-1). On Day 8, the heifers no 4848 and no 1567 were additionally fed in the morning and euthanized 1 hour after using a captive bolt pistol and exsanguination. The two other heifers (no 4849 and no 1550) were euthanized 15 h after the last dose on Day 7 (Fig 2).
Blank blood samples were collected before the first dose was given. On Day 1 and Day 7 blood samples were collected after the morning dose at predetermined time points between 1 and 6 h after dosing (1, 2, 3, 5 and 6 hours). On Day 2 to Day 6 blood samples were collected daily 1 hour after 50% or more of the morning feed had been ingested, since the bracken fern was not eaten instantly. On Day 8 blood samples were collected just before euthanasia. Blood samples were processed and stored as described above.
Concentrations of PTA in plasma of individual animals were evaluated by non-compartmental analysis. Toxicokinetic variables were calculated using standard kinetic equations. The area under the curve (AUC) and the area under the first moment curve (AUMC) were determined using combined linear and natural logarithm trapezoidal rules. The terminal elimination rate was determined using the last three data points of the curve.

[5] = Incubation of bracken extract in rumen liquid, in vitro; assay type: in vitro ADME, Jersey cows; settings: boiled (sterilized) or pre-frozen rumen fluid
[6] = cited from earlier work
[7] = Day 1, heifer 1550, dried bracken twice a day
[8] = Day 1, heifer 1567, dried bracken twice a day
[9] = Day 1, heifer 4848, dried bracken twice a day
[10] = Day 1, heifer 4849, dried bracken twice a day
[11] = Day 7, heifer 1550, dried bracken twice a day
[12] = Day 7, heifer 1567, dried bracken twice a day
[13] = Day 7, heifer 4848, dried bracken twice a day
[14] = Day 7, heifer 4849, dried bracken twice a day
[15] = cows fed bracken for 5 days, PTA dose 23 μmol kg^-1

## Cc1cc2c(c(C)c1CCO)C(=O)[C@H](C)C2 [PTB, pterosin B]
[1]
  peak concentration of PTB in plasma relative to the single dose study of this paper: 26 times
[2]
  PTB recovered in urine: up to 7 % of the dose
[2]; listed as Pterosin B
  PTB recovered in urine: 7 % of the dose
[3]; 5 min after the start of incubation
  PTB as share of the added PTA: 10%
[3]; after 120 min, 37 °C
  PTB concentration in rumen liquid: 2.7 µM
[3]; final sampling (120 min)
  PTB as share of the added PTA: 16%
[3]; starting time, rumen liquid of two cows, 37 °C
  PTB concentration in rumen liquid: 1.35 µM and 1.62 µM
[4]; Day 1, average of four heifers
  AUC0-∞: 0.774 µM·h
  MTT: 3.8 h
[4]; [7]
  AUC0-∞: 0.386 µM·h
  MTT: 2.3 h
[4]; [8]
  AUC0-∞: 1.248 µM·h
  MTT: 4.4 h
[4]; [9]
  AUC0-∞: 0.873 µM·h
  MTT: 4.6 h
[4]; [10]
  AUC0-∞: 0.591 µM·h
  MTT: 3.9 h
[4]; Day 7, average of four heifers
  AUC0-∞: 0.849 µM·h
  MTT: 3.4 h
[4]; [11]
  AUC0-∞: 0.606 µM·h
  MTT: 3.2 h
[4]; [12]
  AUC0-∞: 1.264 µM·h
  MTT: 3.6 h
[4]; [13]
  AUC0-∞: 0.968 µM·h
  MTT: 3.9 h
[4]; [14]
  AUC0-∞: 0.558 µM·h
  MTT: 3.0 h
[4]; after the morning dose
  transient peak of PTB in plasma as share of the PTA dose: 10%
[4]; mean AUC0-∞ Day 1 vs Day 7
  accumulation of PTB in the organism: not accumulated

## CC1=C[C@]2(O[C@@H]3O[C@H](CO)[C@@H](O)[C@H](O)[C@H]3O)C[C@@H](C)C(=O)[C@@H]2[C@](C)(O)C12CC2 [PTA, (2'R,3a'R,4'S,7a'R)-4'-Hydroxy-2',4',6'-trimethyl-3'-oxo-2',3',3a',4'-tetrahydrospiro[cyclopropane-1,5'-inden]-7a'(1'H)-yl β-D-glucopyranoside]
[5]
  degradation of PTA in boiled or pre-frozen rumen fluid: did not reveal any degradation; also recorded: did not degrade PTA
[6]
  time after feeding bracken at which PTA was found in milk: 38 h
[6]; [15]
  PTA excreted in milk as share of the dose: 9.6 % of the dose
  plateau of PTA excreted in milk: 50 µM
[6]; one cow fed 6 kg freshly cut bracken daily for 7 days, PTA 540 μmol day^-1
  PTA concentration in milk: 0.28 µM
[2]; bracken extract or dried bracken fern
  PTA in urine after oral administration: neither detected
[3]; fresh rumen fluid, 37 °C, pH 6.6
  stability of PTA in fresh rumen fluid (in words): detectable in rumen fluid from cow no 1 only immediately after start; also recorded: lost within few minutes
[3]; fresh rumen liquid, 17 μM, 37 °C
  time during which PTA was observed in rumen liquid: ≤ 5 min
[4]; dried bracken, 7 days
  PTA in plasma after repeated oral administration: not detected

Source: publication PMC6588243, “Fate of ptaquiloside—A bracken fern toxin—In cattle” (PLoS ONE, 2019)
